Test results reported in patent EP3928779A1 (Chugai Seiyaku Kabushiki Kaisha, priority 2014, dated 2016).

Legend:
[1] = system: rat small-intestinal brush border membrane vesicles; experiment: Inhibitory effect on 33PO4 uptake into rat small-intestinal brush border membrane vesicles (rapid filtration method); type: biochemical; conditions: 33PO4 uptake into rat small-intestinal BBMVs; test compound 1 µM; reacted for 60 seconds
Summary of the method: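 Uptake of ^33PO4 was measured by rapid filtration and liquid scintillation counting of filter-retained vesicles, after quenching with ice-cold 110 mM NaCl/1 mM KH2PO4/10 mM HEPES pH 7.5. Vesicles were brush border membranes from the upper small intestine of female Wistar rats aged 4–5 weeks.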

[2] = system: chronic kidney disease model rat; experiment: Suppressive effect on rise in serum creatinine concentration of chronic kidney disease model rat; type: in vivo; conditions: suppression of a rise in serum creatinine concentration, dosage 0.1% in feed for 14 weeks
Description: (§1) A group given feed non-supplemented with the test compound was used as a reference pathological group, and a group neither subjected to the kidney removal nor antibody administration and given feed non-supplemented with the test compound was used as a normal group. Fourteen weeks after the start of administration of the test compound, blood was collected from the abdominal aorta and serum was collected. As an indicator of renal damage, serum creatinine concentrations were measured by an enzyme assay (creatinase-sarcosine oxidase-POD method). The rate of suppression of a rise in serum creatinine concentration was determined according to the following expression: Rate (%) of suppression of a rise in serum creatinine concentration = (1−[(Serum creatinine concentration of the test compound−treated pathological group)−(Serum ceatinine concentration of the […])]/[(Serum creatinine concentration of the reference pathological group)−(Serum creatinine concentration of the normal group)]) × 100 [formula]
As a result, the test compound was confirmed to have a suppressive effect on a rise in serum creatinine concentration, namely, a suppressive effect on renal damage. […]

[3] = system: chronic kidney disease model rat; experiment: Suppressive effect on rise in serum parathyroid hormone concentration of chronic kidney disease model rat; type: in vivo; conditions: suppression of a rise in serum parathyroid hormone concentration
Description: as §1
Using serum collected from the same animal as that in test example 7 after 14 weeks from the start of administration of the test compound, concentrations of serum parathyroid hormone were measured by the ELISA method. […]

[4] = system: chronic kidney disease model rat; experiment: Suppressive effect on calcium deposition in blood vessel of chronic kidney disease model rat; type: in vivo; conditions: suppression of calcium deposition in blood vessel (thoracic aorta)
Description: as §1
From the same animal as that in Test Example 7, the thoracic aorta was collected 14 weeks after the start of administration of the test compound, and the dry weight was measured. […]

[5] = system: Adenine-induced renal failure rats; experiment: Suppressive effect on rise in serum phosphorus concentration by combined use with sevelamer carbonate (adenine-induced renal failure rat); type: in vivo; conditions: 14 days
Source text: (§2) Adenine was forcedly administered orally to each Wistar male rat (7-8 weeks old) to impair renal functions and thereby prepare a hyperphosphatemia model (Katsumata K, Kusano K, Hirata M, Tsunemi K, Nagano N, Burke SK, Fukushima N. Sevelamer hydrochloride prevents ectopic calcification and renal osteodystrophy in chronic renal failure rats. Kidney Int. 2003 Aug; 64 (2): 441-50). Each test compound was mixed at a ratio of 0.1% of mass concentration with feed. The animal was fed with a given amount of the feed for 3 days. A group given feed non-supplemented with a test compound was used as a reference pathological group, and an adenine-unadministered group given feed non-supplemented with a test compound was used as a normal group. 3 days after the start of administration of the test compound, blood was collected from the jugular vein, and serum was collected. Serum phosphorus concentrations were measured by the Fiske-Subbarow method. The rate of suppression of a rise in serum phosphorus concentration was determined according to the following expression: Rate (%) of suppression of a rise in serum phosphorus concentration = (1−[(Serum phosphorus concentration of the test compound−treated pathological group)−(Serum phosphorus concentration of the normal group)]/[(Serum phosphorus concentration of the reference pathological group)−(Serum phosphorus concentration of the normal group)]) × 100 [formula]
Adenine-induced renal failure rats were prepared in the same manner as in Test Example 5. […] Serum phosphorus concentrations were measured by the Fiske-Subbarow method. The rate of suppression of a rise in serum phosphorus concentration was determined according to the following expression: Rate (%) of suppression of a rise in serum phosphorus concentration = (1−[(Serum phosphorus concentration of the compound−treated pathological group)−(Serum phorphorus concentration of the normal group)]/[(Serum phosphorus concentration of the reference pathological group)−(Serum phosphorous concentration of the normal group)]) × 100 [formula] […]

[6] = system: adenine-induced renal failure rat; experiment: Suppressive effect on rise in serum phosphorus concentration of adenine-induced renal failure rat (0.1% in feed, 3 days); type: in vivo; conditions: feed or water, 72 h, adenine-induced renal failure Wistar male rat, test compound 0.1% of mass concentration in feed for 3 days, Fiske-Subbarow method, read-out: rate (%) of suppression of a rise in serum phosphorus concentration
Source text: as §2, with “([…],” for “(Katsumata K, Kusano K, Hirata M, Tsunemi K,”, “(1-[(Serum” for “(1−[(Serum”, “compound-treated” for “compound−treated”, “group)-(Serum” for “group)−(Serum”, “[formula] As a result, each test compound was confirmed to have a suppressive effect on a rise in serum phosphorus concentration. […]” for “[formula]”

[7] = dosage 0.1% in feed for 14 weeks
[8] = dosage 0.3% in feed for 14 weeks

Row | SMILES | Rate of uptake inhibition (%) (1 µM) [1] | Rate of inhibition (%) [2] [%] | Rate of inhibition (%) [3, 7] [%] | Rate of inhibition (%) [3, 8] [%] | Rate of inhibition (%) [4, 7] [%] | Rate of inhibition (%) [4, 8] [%] | Suppression rate of rise in serum phosphorus concentration (%) ([5]; test compound 0.05% by mass in combination with sevelamer carbonate 0.5% by mass in feed) | Suppression rate of rise in serum phosphorus concentration (%) ([5]; test compound 0.05% by mass in feed alone (sevelamer carbonate 0%)) | Suppression rate of rise in serum phosphorus concentration (%) ([5]; test compound 0.1% by mass in feed alone (sevelamer carbonate 0%)) | inhibition in vivo at 0.1 % in feed [6] [%]
1 | COCCN(C)CCOc1ccc(CN2C(=O)C(C(=O)Nc3ccc(C(F)(F)F)cc3-c3cc(C(F)(F)F)ncn3)=C(O)C3(CCCC3)N2C)c(F)c1F [Example 14, 7-[[2,3-Difluoro-4-[2-[2-methoxyethyl(methyl)amino]ethoxy]phenyl]methyl]-10-hydroxy-6-methyl-8-oxo-N-[4-(trifluoromethyl)-2-[6-(trifluoromethyl)pyrimidin-4-yl]phenyl]-6,7-diazaspiro[4.5]dec-9-ene-9-carboxamide] | 29 | 17 | 13 | 67 | 100 | 100 | 104 | 61 | 79 | –
2 | CN1N(Cc2ccc(OCCCCC(=O)O)c(F)c2F)C(=O)C(C(=O)Nc2ccc(C(F)(F)F)cc2-c2cc(C(F)(F)F)ncn2)=C(O)C12CCCC2 [Example 333, 5-[2,3-Difluoro-4-[[10-hydroxy-6-methyl-8-oxo-9-[[4-(trifluoromethyl)-2-[6-(trifluoromethyl)pyrimidin-4-yl]phenyl]carbamoyl]-6,7-diazaspiro[4.5]dec-9-en-7-yl]methyl]phenoxy]pentanoic acid] | 29 | – | – | – | – | – | – | – | – | 8
3 | C[C@]12CCCN1N(Cc1ccc(C#CCN3CCOCC3)c(F)c1F)C(=O)C(C(=O)Nc1ccc(C(F)(F)F)cc1-c1ccc(C(F)(F)F)nc1)=C2O [Example 140, (4aR)-1-[[2,3-Difluoro-4-(3-morpholin-4-ylprop-1-ynyl)phenyl]methyl]-4-hydroxy-4a-methyl-2-oxo-N-[4-(trifluoromethyl)-2-[6-(trifluoromethyl)pyridin-3-yl]phenyl]-6,7-dihydro-5H-pyrrolo[1,2-b]pyridazine-3-carboxamide] | 77 | – | – | – | – | – | – | – | – | 39
